Like-named read-outs stand apart in the source and are kept apart here.
Legend:
[1] = tested on: HCV genotype 1b (Con1) replicon in HUH-7 cells; assay: HCV replicon luciferase reporter assay, genotype 1b; type: cell-based; conditions: Hepatitis C virus, GETYPE1B, Huh-7, 72 h, HCV genotype 1b replicon luciferase, 3 days incubation
Method in brief: (§1)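 Replicon inhibition for both genotypes was measured as Renilla luciferase signal (EnduRen, 7.5 μM final, 2 h) after 3-day, 37° C exposure of replicon-bearing HUH-7 cells in 4% FCS DMEM, 0.5% DMSO. The 1b construct carries S1179I; the 1a H77 construct carries P1496L and S2204I. Twenty-point, 3-fold dilutions were fitted four-parametrically for EC50, and CC50 was taken from multiplexed Cell Titer-Blue.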

[2] = tested on: HCV genotype 1a (H77 strain) replicon in HUH-7 cells; assay: HCV replicon luciferase reporter assay, genotype 1a; type: cell-based; conditions: Hepatitis C virus, GETYPE1A, Huh-7, 72 h, HCV genotype 1a replicon luciferase, 3 days incubation
Method in brief: as §1

Molecule `CC[C@@H]1C[C@@H](C)CC/C=C\[C@@H]2C[C@@]2(C(=O)NS(=O)(=O)C2(CF)CC2)NC(=O)[C@@H]2C[C@@H](Oc3nc(OC)cc4cc(OC)ccc34)CN2C(=O)[C@H]1NC(=O)OC(C)(C)C(F)(F)F` [Compound 1194] has an EC50 ([1]; read-out: LE_1b (EC50, range)) of 1.01 to 5 nM and an EC50 ([2]; read-out: LE_1a (EC50, range)) of 5.01 to 35 nM.

Work on `CC[C@@H]1C[C@H](C)CC/C=C\[C@@H]2C[C@@]2(C(=O)NS(=O)(=O)C2CC2)NC(=O)[C@@H]2C[C@@H](Oc3nc4c(c5cc(OC)c(F)cc35)CCCO4)CN2C(=O)[C@H]1NC(=O)OC(C)(C)C(F)(F)F` [Compound 1195] yielded an EC50 ([1]; read-out: LE_1b (EC50, range)) of 1.01 to 5 nM and an EC50 ([2]; read-out: LE_1a (EC50, range)) of 1.01 to 5 nM.

Work on `COc1cc2c3c(nc(O[C@@H]4C[C@H]5C(=O)N[C@]6(C(=O)NS(=O)(=O)C7(C)CC7)C[C@H]6/C=C\CC[C@@H](C)C[C@@H](C)[C@H](NC(=O)OC(C)(C)C(F)(F)F)C(=O)N5C4)c2cc1F)OCCC3` [Compound 1196] yielded an EC50 ([1]; read-out: LE_1b (EC50, range)) of 0.51 to 1 nM and an EC50 ([2]; read-out: LE_1a (EC50, range)) of 0.51 to 1 nM.

`CC[C@@H]1C[C@H](C)CC/C=C\[C@@H]2C[C@@]2(C(=O)NS(=O)(=O)C2(C)CC2)NC(=O)[C@@H]2C[C@@H](Oc3nc4c(c5cc(OC)c(F)cc35)CCCO4)CN2C(=O)[C@H]1NC(=O)OC(C)(C)C(F)(F)F` [Compound 1197] showed an EC50 ([1]; read-out: LE_1b (EC50, range)) of 0.51 to 1 nM and an EC50 ([2]; read-out: LE_1a (EC50, range)) of 1.01 to 5 nM.

`CC[C@@H]1C[C@H](C)CC/C=C\[C@@H]2C[C@@]2(C(=O)NS(=O)(=O)C2(C)CC2)NC(=O)[C@@H]2C[C@@H](Oc3nc4c(c5cc(OC)c(F)cc35)CCCO4)CN2C(=O)[C@H]1NC(=O)OC(C)(C)C(C)(F)F` [Compound 1198] gave an EC50 ([1]; read-out: LE_1b (EC50)) of 0.9 nM, an EC50 ([1]; read-out: LE_1b (EC50, range)) of 0.51 to 1 nM and an EC50 ([2]; read-out: LE_1a (EC50)) of 0.5 nM. For the same molecule, the EC50 ([2]; read-out: LE_1a (EC50, range)) was 0.1 to 0.5 nM.

`CC[C@@H]1C[C@H](C)CC/C=C\[C@@H]2C[C@@]2(C(=O)NS(=O)(=O)C2(C)CC2)NC(=O)[C@@H]2C[C@@H](Oc3cc(OC)nc4cc(OC)c(F)cc34)CN2C(=O)[C@H]1NC(=O)OC(C)(C)C(F)(F)F` [Compound 1199] showed an EC50 ([1]; read-out: LE_1b (EC50, range)) of 1.01 to 5 nM and an EC50 ([2]; read-out: LE_1a (EC50, range)) of 1.01 to 5 nM.

In the case of `CC[C@@H]1C[C@H](C)CC/C=C\[C@@H]2C[C@@]2(C(=O)NS(=O)(=O)C2(C)CC2)NC(=O)[C@@H]2C[C@@H](Oc3cc(OC)nc4cc(OC)c(F)cc34)CN2C(=O)[C@H]1NC(=O)OC(C)(C)C(C)(F)F` [Compound 1200], the EC50 ([1]; read-out: LE_1b (EC50, range)) is reported as 1.01 to 5 nM and the EC50 ([2]; read-out: LE_1a (EC50, range)) is reported as 1.01 to 5 nM.

`CC[C@@H]1C[C@H](C)CC/C=C\[C@@H]2C[C@@]2(C(=O)NS(=O)(=O)C2CC2)NC(=O)[C@@H]2C[C@@H](Oc3cc(OC)nc4cc(OC)c(F)cc34)CN2C(=O)[C@H]1NC(=O)OC(C)(C)C(F)(F)F` [Compound 1201] was tested, and the EC50 ([1]; read-out: LE_1b (EC50, range)) was 1.01 to 5 nM and the EC50 ([2]; read-out: LE_1a (EC50, range)) was 1.01 to 5 nM.

Molecule `CC[C@@H]1C[C@H](C)CC/C=C\[C@@H]2C[C@@]2(C(=O)NS(=O)(=O)C2CC2)NC(=O)[C@@H]2C[C@@H](Oc3cc(OC)nc4cc(OC)c(F)cc34)CN2C(=O)[C@H]1NC(=O)OC(C)(C)C(C)(F)F` [Compound 1202] has an EC50 ([1]; read-out: LE_1b (EC50, range)) of 0.51 to 1 nM and an EC50 ([2]; read-out: LE_1a (EC50, range)) of 1.01 to 5 nM.

Work on `COc1cc(O[C@@H]2C[C@H]3C(=O)N[C@]4(C(=O)NS(=O)(=O)C5(C)CC5)C[C@H]4/C=C\CC[C@@H](C)C[C@@H](C)[C@H](NC(=O)OC(C)(C)C(F)(F)F)C(=O)N3C2)c2cc(F)c(OC)cc2n1` [Compound 1203] yielded an EC50 ([1]; read-out: LE_1b (EC50, range)) of 0.1 to 0.5 nM and an EC50 ([2]; read-out: LE_1a (EC50, range)) of 1.01 to 5 nM.

With `COc1cc(O[C@@H]2C[C@H]3C(=O)N[C@]4(C(=O)NS(=O)(=O)C5(C)CC5)C[C@H]4/C=C\CC[C@@H](C)C[C@@H](C)[C@H](NC(=O)OC(C)(C)C(C)(F)F)C(=O)N3C2)c2cc(F)c(OC)cc2n1` [Compound 1204] the EC50 ([1]; read-out: LE_1b (EC50, range)) was 0.51 to 1 nM and the EC50 ([2]; read-out: LE_1a (EC50, range)) was 1.01 to 5 nM.
